± gives the expanded uncertainty stated by the source.
Assay: wn = mass fraction of the nth substance listed
Details: 101 kPa, Liquid; for speed of sound: Single path-length method; for mass density: Vibrating tube method

CN1CCCC1=O [N-methylpyrrolidone] + CCCCn1cc[n+](C)c1.F[B-](F)(F)F
Details	mass density [kg/m3]	speed of sound [m/s]	viscosity [mPa·s]
293.15 K, w2 = 0	1034.1 ± 0.2	1565.7 ± 0.9	1.786 ± 0.049
293.15 K, w2 = 0.0986	1052.7 ± 0.2	1579.2 ± 1	2.568 ± 0.068
293.15 K, w2 = 0.2498	1077.9 ± 0.3	1582 ± 1.1	3.938 ± 0.1
293.15 K, w2 = 0.4971	1119.5 ± 0.5	1585.5 ± 1.4	9.374 ± 0.23
293.15 K, w2 = 0.7413	1160.6 ± 0.8	1580.1 ± 1.8	27.49 ± 0.7
298.15 K, w2 = 0	1029.7 ± 0.2	1546.1 ± 0.9	1.693 ± 0.047
298.15 K, w2 = 0.0986	1048.4 ± 0.2	1560.5 ± 1	2.33 ± 0.062
298.15 K, w2 = 0.2498	1073.7 ± 0.3	1564.5 ± 1.1	3.528 ± 0.091
298.15 K, w2 = 0.4971	1115.5 ± 0.5	1570.1 ± 1.4	8.144 ± 0.2
298.15 K, w2 = 0.7413	1156.8 ± 0.8	1566.6 ± 1.8	22.73 ± 0.57
303.15 K, w2 = 0	1025.2 ± 0.2	1526.7 ± 0.9	1.564 ± 0.044
303.15 K, w2 = 0.0986	1044 ± 0.2	1541.8 ± 1	2.129 ± 0.058
303.15 K, w2 = 0.2498	1069.5 ± 0.3	1546.8 ± 1.1	3.18 ± 0.083
303.15 K, w2 = 0.4971	1111.5 ± 0.5	1554.5 ± 1.4	7.116 ± 0.18
303.15 K, w2 = 0.7413	1153 ± 0.8	1552.8 ± 1.8	19.07 ± 0.48
308.15 K, w2 = 0	1020.8 ± 0.2	1507.5 ± 0.9	1.448 ± 0.042
308.15 K, w2 = 0.0986	1039.7 ± 0.2	1523.2 ± 1	1.953 ± 0.054
308.15 K, w2 = 0.2498	1065.4 ± 0.3	1529.4 ± 1.1	2.884 ± 0.076
308.15 K, w2 = 0.4971	1107.5 ± 0.5	1539 ± 1.4	6.257 ± 0.16
308.15 K, w2 = 0.7413	1149.2 ± 0.8	1539.2 ± 1.8	16.26 ± 0.41
313.15 K, w2 = 0	1016.3 ± 0.2	1488.3 ± 0.9	1.346 ± 0.039
313.15 K, w2 = 0.0986	1035.4 ± 0.2	1504.8 ± 1	1.798 ± 0.05
313.15 K, w2 = 0.2498	1061.2 ± 0.3	1512 ± 1.1	2.627 ± 0.07
313.15 K, w2 = 0.4971	1103.5 ± 0.5	1523.7 ± 1.4	5.544 ± 0.14
313.15 K, w2 = 0.7413	1145.4 ± 0.8	1525.6 ± 1.8	13.88 ± 0.35
318.15 K, w2 = 0	1011.9 ± 0.2	1469.2 ± 0.9	1.258 ± 0.037
318.15 K, w2 = 0.0986	1031 ± 0.2	1486.6 ± 1	1.662 ± 0.047
318.15 K, w2 = 0.2498	1057 ± 1	1494.8 ± 1.1	2.405 ± 0.065
318.15 K, w2 = 0.4971	1099.5 ± 0.5	1508.4 ± 1.4	4.948 ± 0.13
318.15 K, w2 = 0.7413	1141.7 ± 0.8	1512.2 ± 1.8	12.04 ± 0.3
323.15 K, w2 = 0	1007.4 ± 0.2	1450.4 ± 0.9	1.176 ± 0.035
323.15 K, w2 = 0.0986	1026.6 ± 0.2	1468.4 ± 1	1.542 ± 0.044
323.15 K, w2 = 0.2498	1052.8 ± 0.3	1478 ± 1.1	2.214 ± 0.06
323.15 K, w2 = 0.4971	1095.5 ± 0.5	1493.2 ± 1.4	4.444 ± 0.11
323.15 K, w2 = 0.7413	1137.9 ± 0.8	1498.9 ± 1.8	10.54 ± 0.27
328.15 K, w2 = 0	1002.9 ± 0.2	1431.4 ± 0.9	1.103 ± 0.033
328.15 K, w2 = 0.0986	1022.3 ± 0.2	1450.5 ± 1	1.435 ± 0.041
328.15 K, w2 = 0.2498	1048.6 ± 0.3	1461.1 ± 1.1	2.043 ± 0.056
328.15 K, w2 = 0.4971	1091.6 ± 0.4	1478.1 ± 1.4	4.015 ± 0.1
328.15 K, w2 = 0.7413	1134.2 ± 0.8	1485.6 ± 1.8	9.281 ± 0.24
333.15 K, w2 = 0	998.4 ± 0.2	1412.8 ± 0.9	1.037 ± 0.032
333.15 K, w2 = 0.0986	1018 ± 0.2	1432.6 ± 1	1.341 ± 0.039
333.15 K, w2 = 0.2498	1044.4 ± 0.3	1444.4 ± 1.1	1.892 ± 0.052
333.15 K, w2 = 0.4971	1087.6 ± 0.4	1463.2 ± 1.4	3.636 ± 0.095
333.15 K, w2 = 0.7413	1130.5 ± 0.7	1472.4 ± 1.8	8.224 ± 0.21
338.15 K, w2 = 0	993.9 ± 0.2	1394.4 ± 0.9	0.9769 ± 0.03
338.15 K, w2 = 0.0986	1013.6 ± 0.2	1414.6 ± 1	1.258 ± 0.037
338.15 K, w2 = 0.2498	1040.2 ± 0.3	1427.8 ± 1.1	1.76 ± 0.049
338.15 K, w2 = 0.4971	1083.6 ± 0.4	1448.1 ± 1.4	3.34 ± 0.088
338.15 K, w2 = 0.7413	1126.7 ± 0.7	1459.3 ± 1.8	7.318 ± 0.19
343.15 K, w2 = 0	989.4 ± 0.2	1376 ± 0.9	0.923 ± 0.029
343.15 K, w2 = 0.0986	1009.2 ± 0.2	1396.4 ± 1	1.182 ± 0.035
343.15 K, w2 = 0.2498	1036 ± 1	1411.3 ± 1.1	1.641 ± 0.046
343.15 K, w2 = 0.4971	1079.6 ± 0.4	1432.9 ± 1.4	3.064 ± 0.081
343.15 K, w2 = 0.7413	1123 ± 1	1445.8 ± 1.8	6.555 ± 0.17
